Experimental data as given in patent US20200396973A1, “PSORIASIS-INDUCED ANIMAL MODEL AND USE THEREOF” (CUROGEN TECHNOLOGY CO., LTD., priority 2016, published 2020).

System: Peli1 transgenic mice (rtTA-Peli1)
Procedure: Tissues of mice were fixed using 10% neutral buffered formalin to produce paraffin blocks. Sections having a thickness of 3 μm were obtained from the paraffin blocks, and then stained with hematoxylin & eosin (H&E). In the case of immunohistochemistry, staining was performed using an anti-K14 antibody, an anti-Ki67 antibody, an anti-CD31 antibody, and an anti-CD3 antibody, followed by mounting using a mounting medium containing a DAPI reagent. Images of the stained tissue samples were acquired using an AxioCam digital microscope camera and AxioVision image processing software (Carl Zeiss).

For CN(Cc1cnc2nc(N)nc(N)c2n1)c1ccc(C(=O)N[C@@H](CCC(=O)O)C(=O)O)cc1 [methotrexate], the “thickness of the skin” value (rtTA-Peli1 mice with psoriasis phenotypes after doxycycline, intraperitoneal injection for a certain period, FIG. 8D) was “about half of the thickness of the skin was reduced”, the “increase in the thickness of the skin according to the proliferation of epidermal cells (H&E staining)” value (rtTA-Peli1 mice, doxycycline 12 weeks, after administration of CsA or MTX, FIG. 8B) was “still observed” and the “phenotypes of parakeratosis, hyperkeratosis, rete ridge, and microabscess (skin layer structure, H&E staining)” value (rtTA-Peli1 mice, doxycycline 12 weeks, then CsA 6 times a week or MTX 4 times a week intraperitoneally, FIG. 8B) was “most of the phenotypes of parakeratosis, hyperkeratosis, rete ridge, and microabscess shown in the Peli1 transgenic mice (rtTA-Peli1) disappeared”. For the same compound, the psoriasis phenotype score (rtTA-Peli1 mice, doxycycline 12 weeks, then intraperitoneal injection for a certain period, scoring per Table 1, FIG. 8C) was “reduced”.
